Measured values from US7799819B2, “7-Amido-isoindolyl compounds and their pharmaceutical uses” (Celgene Corporation, priority 2003, dated 2010).

Compound: CCOc1cc([C@@H](CS(C)(=O)=O)N2Cc3c(F)ccc(NC(=O)C4CC4)c3C2=O)ccc1OC [Example 28, (1S)-Cyclopropanecarboxylic acid {2-[1-(3-ethoxy-4-methoxy-phenyl)-2-methanesulfonyl-ethyl]-7-fluoro-3-oxo-2,3-dihydro-1H-isoindol-4-yl}-amide]
- melting point: 176 to 178 °C

Compound: CCOc1cc([C@@H](CC(=O)NOC(=O)CC(C)(C)C)N2Cc3cccc(NC(=O)C4CC4)c3C2=O)ccc1OC [Example 27, (1R)-Cyclopropanecarboxylic acid {2-[2-(3,3-dimethyl-butyryloxycarbamoyl)-1-(3-ethoxy-4-methoxy-phenyl)-ethyl]-3-oxo-2,3-dihydro-1H-isoindol-4-yl}-amide]
- melting point: 118 to 120 °C

Compound: CCOc1cc([C@@H](CCO)N2Cc3cccc(NC(=O)C4CC4)c3C2=O)ccc1OC [Example 1, (1R)-Cyclopropanecarboxylic acid {2-[1-(3-ethoxy-4-methoxy-phenyl)-3-hydroxy-propyl]-3-oxo-2,3-dihydro-1H-isoindol-4-yl}-amide]
- melting point: 103 to 105 °C

Compound: CCOc1cc([C@@H](CC(=O)NOC(=O)C(C)C)N2Cc3cccc(NC(=O)C4CC4)c3C2=O)ccc1OC [Example 25, (1R)-Cyclopropanecarboxylic acid {2-[1-(3-ethoxy-4-methoxy-phenyl)-2-isobutyryloxycarbamoyl-ethyl]-3-oxo-2,3-dihydro-1H-isoindol-4-yl}-amide]
- melting point: 107 to 109 °C

Compound: CCOc1cc([C@@H](CCNO)N2Cc3cccc(NC(=O)C4CC4)c3C2=O)ccc1OC [Example 3, (1R)-Cyclopropanecarboxylic acid {2-[1-(3-ethoxy-4-methoxy-phenyl)-3-hydroxyamino-propyl]-3-oxo-2,3-dihydro-1H-isoindol-4-yl}-amide]
- melting point: 136 to 138 °C

Compound: CCOc1cc([C@@H](CC(=O)NOC(C)=O)N2Cc3c(Cl)ccc(NC(=O)C4CC4)c3C2=O)ccc1OC [Example 17, (1R)-Cyclopropanecarboxylic acid {2-[2-acetoxycarbamoyl-1-(3-ethoxy-4-methoxy-phenyl)-ethyl]-7-chloro-3-oxo-2,3-dihydro-1H-isoindol-4-yl}-amide]
- melting point: 139 to 141 °C

Compound: CCOc1cc([C@@H](CS(C)(=O)=O)N2Cc3c(Cl)ccc(NC(=O)CN4CCN(C)CC4)c3C2=O)ccc1OC [Example 30, (1S)—N-{7-Chloro-2-[1-(3-ethoxy-4-methoxy-phenyl)-2-methanesulfonyl-ethyl]-3-oxo-2,3-dihydro-1H-isoindol-4-yl}-2-(4-methyl-piperazin-1-yl)-acetamide]
- melting point: 205 to 207 °C

Compound: CCOc1cc([C@@H](CC[S+](C)[O-])N2Cc3cccc(NC(=O)C4CC4)c3C2=O)ccc1OC (stereo partly drawn) [Example 11, (3R)-Cyclopropanecarboxylic acid {2-[1-(3-ethoxy-4-methoxy-phenyl)-3-methanesulfinyl-propyl]-3-oxo-2,3-dihydro-1H-isoindol-4-yl}-amide]
- melting point: 122 to 125 °C

Compound: CCOc1cc([C@@H](CS(C)(=O)=O)N2Cc3c(Cl)ccc(NC(=O)CN4CCOCC4)c3C2=O)ccc1OC.Cl
- melting point: 198 to 200 °C

Compound: CCOc1cc([C@@H](CC(=O)NOC(=O)C2CC2)N2Cc3cccc(NC(=O)C4CC4)c3C2=O)ccc1OC [Example 24, (1R)-Cyclopropanecarboxylic acid {2-[2-cyclopropanecarbonyloxycarbamoyl-1-(3-ethoxy-4-methoxy-phenyl)-ethyl]-3-oxo-2,3-dihydro-1H-isoindol-4-yl}-amide]
- melting point: 130 to 132 °C
